For data set [1] the following is noted: especially in its phosphate salt form.
For data set [2] the following is noted: especially in its phosphate salt form. The source holds these as a separate data set.
The conditions of data set [3]: drug substance without excipients.
The conditions of data set [4]: drug substance without MCC.

The record followed here is patent publication US20170202808A1, “PHARMACEUTICAL DOSAGE FORMS” (Novartis AG, priority 2014, published 2017).

As to `N#Cc1ccc([C@H]2CCc3cncn32)c(F)c1` [compound of formula (1), 4-[(5R)-6,7-dihydro-5H-pyrrolo[1,2-c]imidazol-5-yl]-3-fluorobenzonitrile], in data set [1], the “drug substance bulk density” value lay within 0.1 to 0.3 g/mL. Besides, in data set [2], the hygroscopicity entry is listed as “hygroscopic”. Also, the “flowability, ffc (poorly flowable)” value in data set [3] amounted to 1.1. In data set [4], the primary particle size entry is “ca. 4 micron”.
